Results reported in PubChem BioAssay (NCI).
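The compound was tested at five concentrations on cells cultured in 96-well plates, with a 48-hour exposure period. TGI: concentration producing complete growth inhibition.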

Legend:
Experiment in all cases: NCI tumour cell line growth inhibition, 48 h
786-0 renal = system: 786-0 renal
A498 renal = system: A498 renal
A549 NSCLC = system: A549 NSCLC
ACHN renal = system: ACHN renal
BT-549 breast = system: BT-549 breast
CAKI-1 renal = system: CAKI-1 renal
CCRF-CEM leukemia = system: CCRF-CEM leukemia
COLO 205 colon = system: COLO 205 colon
DU-145 prostate = system: DU-145 prostate
EKVX NSCLC = system: EKVX NSCLC
HCT-116 colon = system: HCT-116 colon
HCT-15 colon = system: HCT-15 colon
HL-60(TB) leukemia = system: HL-60(TB) leukemia
HOP-62 NSCLC = system: HOP-62 NSCLC
HOP-92 NSCLC = system: HOP-92 NSCLC
HS 578T breast = system: HS 578T breast
HT29 colon = system: HT29 colon
IGROV1 ovarian = system: IGROV1 ovarian
K-562 leukemia = system: K-562 leukemia
KM12 colon = system: KM12 colon
LOX IMVI melanoma = system: LOX IMVI melanoma
M14 melanoma = system: M14 melanoma
MALME-3M melanoma = system: MALME-3M melanoma
MCF7 breast = system: MCF7 breast
MDA-MB-231 breast = system: MDA-MB-231 breast
MDA-MB-435 = system: MDA-MB-435
MDA-N = system: MDA-N
MOLT-4 leukemia = system: MOLT-4 leukemia
NCI-H226 lung = system: NCI-H226 lung
NCI-H23 lung = system: NCI-H23 lung
NCI-H522 lung = system: NCI-H522 lung
NCI/ADR-RES ovarian = system: NCI/ADR-RES ovarian
OVCAR-3 ovarian = system: OVCAR-3 ovarian
OVCAR-5 ovarian = system: OVCAR-5 ovarian
OVCAR-8 ovarian = system: OVCAR-8 ovarian
RPMI-8226 leukemia = system: RPMI-8226 leukemia
RXF 393 renal = system: RXF 393 renal
SF-268 CNS = system: SF-268 CNS
SF-295 CNS = system: SF-295 CNS
SF-539 CNS = system: SF-539 CNS
SK-MEL-2 melanoma = system: SK-MEL-2 melanoma
SK-MEL-28 melanoma = system: SK-MEL-28 melanoma
SK-MEL-5 melanoma = system: SK-MEL-5 melanoma
SK-OV-3 ovarian = system: SK-OV-3 ovarian
SN12C renal = system: SN12C renal
SNB-19 CNS = system: SNB-19 CNS
SNB-75 CNS = system: SNB-75 CNS
SR leukemia = system: SR leukemia
SW-620 colon = system: SW-620 colon
T-47D breast = system: T-47D breast
TK-10 renal = system: TK-10 renal
UACC-257 melanoma = system: UACC-257 melanoma
UACC-62 melanoma = system: UACC-62 melanoma
UO-31 renal = system: UO-31 renal

Measured: TGI

Cn1c(N)c(Cc2ccc(Cl)cc2)c(=O)[nH]c1=O
> 100 µM: all assays above
